Source: PubChem BioAssay AID1259411 (Chemical Carcinogenesis Research Information System (CCRIS), 2018)
Activity calls are given as the source filed them. The rule behind the calls is not given here.

Test system: rodent carcinogenicity bioassays, tumor incidence
Experiment: CCRIS carcinogenicity studies
Settings: Dose: 0, Dose: 0
How it was run: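 NCI-built, expert-reviewed records of carcinogenicity and related test outcomes (mutagenicity, tumor promotion/inhibition) compiled from published and report sources, historical span 1985-2011, not updated.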

C=COC(C)=O
carcinogen call (Species: MOUSE, Strain/Sex: CRL:CD-1(ICR)BR/FEMALE, Route: INHALATION, 50, 200, 600 PPM 6 HR/D 5 D/WK FOR 104 WK (STUDY DURATION: 104 WK), 50, 200, 600 PPM 6 HR/D 5 D/WK FOR 104 WK (STUDY DURATION: 104 WK)): inactive; negative | carcinogen call (Species: MOUSE, Strain/Sex: CRL:CD-1(ICR)BR/MALE, Route: INHALATION, 50, 200, 600 PPM 6 HR/D 5 D/WK FOR 104 WK (STUDY DURATION: 104 WK), 50, 200, 600 PPM 6 HR/D 5 D/WK FOR 104 WK (STUDY DURATION: 104 WK)): inactive; negative | carcinogen call (Species: MOUSE, Strain/Sex: SWISS/FEMALE, Route: ORAL, 1000, 5000 PPM IN DRINKING WATER ADMINISTERED FOR DURATION OF STUDY TO OFFSPRING OF MOTHERS EXPOSED TO THE SAME DOSES, 1000, 5000 PPM IN DRINKING WATER ADMINISTERED FOR DURATION OF STUDY TO OFFSPRING OF MOTHERS EXPOSED TO THE SAME DOSES, Tumor Site: Type of Lesion: ZYMBAL GLAND: CARCINOMA, ORAL CAVITY: SQUAMOUS CELL CARCINOMA, TONGUE: SQUAMOUS CELL CARCINOMA, ESOPHAGUS: SQUAMOUS CELL, Tumor Site: Type of Lesion: ZYMBAL GLAND: CARCINOMA, ORAL CAVITY: SQUAMOUS CELL CARCINOMA, TONGUE: SQUAMOUS CELL CARCINOMA, ESOPHAGUS: SQUAMOUS CELL): active; positive | carcinogen call (Species: MOUSE, Strain/Sex: SWISS/FEMALE, Route: ORAL, 1000, 5000 PPM IN DRINKING WATER FOR DURATION OF STUDY (STUDY DURATION:LIFE SPAN), 1000, 5000 PPM IN DRINKING WATER FOR DURATION OF STUDY (STUDY DURATION:LIFE SPAN), Tumor Site: Type of Lesion: TONGUE: SQUAMOUS CELL CARCINOMA, ESOPHAGUS: SQUAMOUS CELL CARCINOMA, LUNG: ADENOMA OR ADENOCARCINOMA, UTERUS: TUMOR, Tumor Site: Type of Lesion: TONGUE: SQUAMOUS CELL CARCINOMA, ESOPHAGUS: SQUAMOUS CELL CARCINOMA, LUNG: ADENOMA OR ADENOCARCINOMA, UTERUS: TUMOR): active; positive | carcinogen call (Species: MOUSE, Strain/Sex: SWISS/MALE, Route: ORAL, 1000, 5000 PPM IN DRINKING WATER FOR DURATION OF STUDY (STUDY DURATION: LIFE SPAN), 1000, 5000 PPM IN DRINKING WATER FOR DURATION OF STUDY (STUDY DURATION: LIFE SPAN)): inactive; negative | carcinogen call (Species: RAT, Strain/Sex: CRL:CD(SD)BR/FEMALE, Route: INHALATION, 50, 200, 600 PPM 6 HR/D 5 D/WK FOR 104 WK (STUDY DURATION: 104 WK), 50, 200, 600 PPM 6 HR/D 5 D/WK FOR 104 WK (STUDY DURATION: 104 WK)): inactive; negative | carcinogen call (Species: RAT, Strain/Sex: CRL:CD(SD)BR/FEMALE, Route: ORAL, 200, 1000, 5000 PPM IN DRINKING WATER FOR 104 WK ADMINISTERED TO OFFSPRING OF RATS ADMINISTERED THE SAME DOSES BEGINN, 200, 1000, 5000 PPM IN DRINKING WATER FOR 104 WK ADMINISTERED TO OFFSPRING OF RATS ADMINISTERED THE SAME DOSES BEGINN): inactive; negative | carcinogen call (Species: RAT, Strain/Sex: CRL:CD(SD)BR/MALE, Route: INHALATION, 50, 200, 600 PPM 6 HR/D 5 D/WK FOR 104 WK (STUDY DURATION: 104 WK), 50, 200, 600 PPM 6 HR/D 5 D/WK FOR 104 WK (STUDY DURATION: 104 WK), Tumor Site: Type of Lesion: NASAL CAVITY: TUMOR): active; positive | carcinogen call (Species: RAT, Strain/Sex: CRL:CD(SD)BR/MALE, Route: ORAL, 200, 1000, 5000 PPM IN DRINKING WATER FOR 104 WK ADMINISTERED TO OFFSPRING OF RATS ADMINISTERED THE SAME DOSES BEGINN, 200, 1000, 5000 PPM IN DRINKING WATER FOR 104 WK ADMINISTERED TO OFFSPRING OF RATS ADMINISTERED THE SAME DOSES BEGINN): inactive; negative | carcinogen call (Species: RAT, Strain/Sex: F344/FEMALE, Route: ORAL, 1000, 2500 MG/L IN DRINKING WATER 5 D/WK FOR 100 WK (STUDY DURATION: 130 WK), 1000, 2500 MG/L IN DRINKING WATER 5 D/WK FOR 100 WK (STUDY DURATION: 130 WK), Tumor Site: Type of Lesion: UTERUS: CARCINOMA, THYROID: C-CELL ADENOMA, LIVER: NEOPLASTIC NODULE, Tumor Site: Type of Lesion: UTERUS: CARCINOMA, THYROID: C-CELL ADENOMA, LIVER: NEOPLASTIC NODULE): active; positive | carcinogen call (Species: RAT, Strain/Sex: F344/MALE, Route: ORAL, 1000, 2500 MG/L IN DRINKING WATER 5 D/WK FOR 100 WK (STUDY DURATION: 130 WK), 1000, 2500 MG/L IN DRINKING WATER 5 D/WK FOR 100 WK (STUDY DURATION: 130 WK)): inactive; negative | carcinogen call (Species: SWISS/MALE, Strain/Sex: ORAL, Route: ORAL, 1000, 5000 PPM IN DRINKING WATER ADMINISTERED FOR DURATION OF STUDY TO OFFSPRING OF MOTHERS EXPOSED TO THE SAME DOSES, 1000, 5000 PPM IN DRINKING WATER ADMINISTERED FOR DURATION OF STUDY TO OFFSPRING OF MOTHERS EXPOSED TO THE SAME DOSES, Tumor Site: Type of Lesion: ZYMBAL GLAND: CARCINOMA, ORAL CAVITY: SQUAMOUS CELL CARCINOMA, TONGUE: SQUAMOUS CELL CARCINOMA, ESOPHAGUS: SQUAMOUS CELL, Tumor Site: Type of Lesion: ZYMBAL GLAND: CARCINOMA, ORAL CAVITY: SQUAMOUS CELL CARCINOMA, TONGUE: SQUAMOUS CELL CARCINOMA, ESOPHAGUS: SQUAMOUS CELL): active; positive

Cn1cc(C(=O)O)c(=O)c2ccc(/C=C/c3ccc([N+](=O)[O-])o3)nc21
carcinogen call (Species: MOUSE, Strain/Sex: ICR/MALE, Route: ORAL, 0.012% IN DIET FOR 14 WK (STUDY DURATION: 53 WK), Tumor Site: Type of Lesion: FORESTOMACH: SQUAMOUS CELL CARCINOMA, SQUAMOUS CELL PAPILLOMA, LUNG: PAPILLARY ADENOCARCINOMA): active; positive

CCOCCc1c(-c2ccccc2)nc(N)n2ncnc12
carcinogen call (Species: RAT, Strain/Sex: STRAIN-CD/FEMALE, Route: ORAL, 50, 150, 450 MG/KG/D IN DIET FOR 97 WK (STUDY DURATION: 105 WK), 50, 150, 450 MG/KG/D IN DIET FOR 97 WK (STUDY DURATION: 105 WK), Tumor Site: Type of Lesion: LIVER: ADENOMA OR CARCINOMA, MAMMARY GLAND: ADENOMA OR CARCINOMA, THYROID GLAND: ADENOMA, Tumor Site: Type of Lesion: LIVER: ADENOMA OR CARCINOMA, MAMMARY GLAND: ADENOMA OR CARCINOMA, THYROID GLAND: ADENOMA): active; positive | carcinogen call (Species: RAT, Strain/Sex: STRAIN-CD/MALE, Route: ORAL, 50, 150, 450 MG/KG/D IN DIET FOR 97 WK (STUDY DURATION: 105 WK), 50, 150, 450 MG/KG/D IN DIET FOR 97 WK (STUDY DURATION: 105 WK), Tumor Site: Type of Lesion: LIVER: ADENOMA OR CARCINOMA, THYROID GLAND: ADENOMA OR CARCINOMA): active; positive

CN(N=O)C(CCC(=O)O)c1cccnc1 (stereo not given)
carcinogen call (Species: MOUSE, Strain/Sex: STRAIN-A/FEMALE, Route: INTRAPERITONEAL, 2.23 MG 3/WK FOR 20 WK (STUDY DURATION: 50 WK)): inactive; negative | carcinogen call (Species: MOUSE, Strain/Sex: STRAIN-A/FEMALE, Route: INTRAPERITONEAL, 200 UMOL MOUSE (TOTAL DOSE) ADMINISTERED IN 0.1 ML SALINE 3/WK (TOTAL 20 INJECTIONS) (STUDY DURATION: 37 WK)): inactive; negative | carcinogen call (Species: MOUSE, Strain/Sex: STRAIN-A/FEMALE, Route: INTRAPERITONEAL, 200 UMOL TOTAL DOSE ADMINISTERED IN SUBDOSES 3/WK FOR 7 WK (STUDY DURATION: 37 WK)): inactive; negative

CNC(=O)Oc1cccc2c1OC(C)(C)O2
carcinogen call (Species: Mouse, Strain/Sex: CD-1/Female, Route: Oral, 50, 250, 1250 ppm in diet for 94 wks, 50, 250, 1250 ppm in diet for 94 wks): inactive; negative; purity 92.7% | carcinogen call (Species: Mouse, Strain/Sex: CD-1/Male, Route: Oral, 50, 250, 1250 ppm in diet for 89 wks, 50, 250, 1250 ppm in diet for 89 wks): inactive; negative; purity 92.7%
